Read-outs that look alike come from different tables or passages of the source.
Legend:
GSK-3 [1] = target: T1, GSK-3 (Plasmodium knowlesi, UniProt A0A679KU36); assay: Species specificity: recombinant tagged GSK-3 orthologue kinase assay; type: biochemical
T1 sequence (A0A679KU36 1-473): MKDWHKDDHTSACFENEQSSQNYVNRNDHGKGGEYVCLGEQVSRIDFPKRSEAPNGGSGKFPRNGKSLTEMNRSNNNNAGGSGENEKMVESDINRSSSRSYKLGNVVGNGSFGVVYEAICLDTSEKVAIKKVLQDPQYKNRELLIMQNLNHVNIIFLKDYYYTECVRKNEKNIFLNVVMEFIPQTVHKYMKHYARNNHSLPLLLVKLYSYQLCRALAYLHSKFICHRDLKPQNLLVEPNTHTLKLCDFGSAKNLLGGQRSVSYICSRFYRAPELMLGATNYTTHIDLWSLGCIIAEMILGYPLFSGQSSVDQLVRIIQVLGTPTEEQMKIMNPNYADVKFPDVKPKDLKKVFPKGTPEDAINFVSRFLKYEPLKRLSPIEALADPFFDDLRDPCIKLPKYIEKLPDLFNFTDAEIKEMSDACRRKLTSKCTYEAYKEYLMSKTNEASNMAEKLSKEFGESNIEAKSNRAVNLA
Description: (§1) Following PCR amplification from cDNA libraries or direct synthesis based on databases sequences, the GSK-3 genes were inserted in appropriate expression vectors and recombinant, tagged kinases were expressed, affinity purified and assayed in the presence of up to 10-100µM of each compound of formula (I) according to the present invention and a selection of the PfGSK-3 inhibitors.

GSK-3 [2] = target: T2, GSK-3 (Trypanosoma cruzi, UniProt Q4E1X0); assay: as above; type: biochemical
T2 sequence (Q4E1X0 1-353): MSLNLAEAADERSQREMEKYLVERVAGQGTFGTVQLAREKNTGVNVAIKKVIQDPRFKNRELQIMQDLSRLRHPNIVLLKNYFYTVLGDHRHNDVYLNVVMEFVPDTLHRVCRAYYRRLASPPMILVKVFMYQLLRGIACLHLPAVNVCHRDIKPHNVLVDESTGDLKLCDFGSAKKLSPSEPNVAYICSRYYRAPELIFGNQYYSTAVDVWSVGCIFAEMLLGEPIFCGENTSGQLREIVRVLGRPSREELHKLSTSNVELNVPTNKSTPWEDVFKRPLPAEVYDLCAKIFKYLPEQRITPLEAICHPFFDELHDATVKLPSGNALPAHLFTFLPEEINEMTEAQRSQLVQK
Description: as §1

GSK-3 [3] = target: T3, GSK-3 (Leishmania donovani, UniProt A6N857); assay: as above; type: biochemical
T3 sequence (A6N857 1-355): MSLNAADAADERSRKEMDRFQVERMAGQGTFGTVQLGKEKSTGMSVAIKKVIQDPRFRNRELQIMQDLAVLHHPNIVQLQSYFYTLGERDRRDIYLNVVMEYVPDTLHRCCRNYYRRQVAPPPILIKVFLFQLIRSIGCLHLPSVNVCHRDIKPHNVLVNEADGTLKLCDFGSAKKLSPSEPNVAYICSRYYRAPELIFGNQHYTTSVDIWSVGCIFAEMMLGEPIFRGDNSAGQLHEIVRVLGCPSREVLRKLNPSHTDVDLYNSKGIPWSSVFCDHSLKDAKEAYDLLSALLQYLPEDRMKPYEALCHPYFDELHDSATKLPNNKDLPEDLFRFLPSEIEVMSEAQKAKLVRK
Description: as §1

[4] = target: Mammalian GSK-3 (GSK-3α/β); assay: Kinase assay with native porcine GSK3 purified from porcine brain, GS-1 peptide and [γ-33P] ATP; type: biochemical; details: for anti-mammalian GSK-3 IC50 values: result in words
Description: Porcine GSK3 (GSK-3α/β) was purified from porcine brain by affinity chromatography on immobilized axin according to the protocol described in Primot et al (Protein Expression and Purification 20, 394-404, 2000).
Both porcine GSK3 and PfGSK3 were assayed with 40 µM GS-1 peptide, a specific GSK-3 substrate, ([…]pEDEEE, synthesized by the Peptide Synthesis Unit, Institute of Biomolecular Sciences, University of Southampton, U.K.), in buffer A (25 mM Tris-HCl pH 7.5, 10 mM MgC12, 1 mM EGTA, 1 mM DTT, 50 µg heparin/ml, 0.5 mg BSA/ml) in the presence of 15 µM [γ-^33P] ATP (3000 Ci/mmol; 1 mCi/ml) in a final volume of 30 µl. After 30 min. incubation at 30°C, 25 µl aliquots of supernatant were spotted onto 2.5 x 3 cm pieces of Whatman P81 phosphocellulose paper, and, 20 sec. later, the filters were washed five times (for at least 5 min. each time) in 1 % phosphoric acid. The wet filters were counted in the presence of 1 ml ACS (Amersham) scintillation fluid. The kinase activity was expressed in pmoles phosphate incorporated in GS-1 or in percentage of the maximal activity.

GSK-3 [5] = target: T4, GSK-3 (Cryptosporidium parvum, UniProt A3FQN0); assay: Species specificity: recombinant tagged GSK-3 orthologue kinase assay; type: biochemical
T4 sequence (A3FQN0 1-433): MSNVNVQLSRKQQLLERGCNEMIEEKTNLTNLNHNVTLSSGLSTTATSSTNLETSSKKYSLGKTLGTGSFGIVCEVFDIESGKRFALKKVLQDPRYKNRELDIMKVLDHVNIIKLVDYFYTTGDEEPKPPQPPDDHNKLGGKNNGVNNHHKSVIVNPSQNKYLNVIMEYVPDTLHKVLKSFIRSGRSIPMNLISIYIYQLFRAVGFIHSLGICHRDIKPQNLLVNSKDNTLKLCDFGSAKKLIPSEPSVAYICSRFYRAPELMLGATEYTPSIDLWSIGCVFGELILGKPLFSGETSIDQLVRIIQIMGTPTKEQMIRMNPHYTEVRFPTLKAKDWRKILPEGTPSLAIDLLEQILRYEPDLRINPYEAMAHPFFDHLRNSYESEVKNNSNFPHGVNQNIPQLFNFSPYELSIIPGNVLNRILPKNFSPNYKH
Description: as §1

GSK-3 [6] = target: T5, GSK-3 (Toxoplasma gondii, UniProt O44002); assay: as above; type: biochemical, Toxaplasma grondii
T5 sequence (O44002 1-394): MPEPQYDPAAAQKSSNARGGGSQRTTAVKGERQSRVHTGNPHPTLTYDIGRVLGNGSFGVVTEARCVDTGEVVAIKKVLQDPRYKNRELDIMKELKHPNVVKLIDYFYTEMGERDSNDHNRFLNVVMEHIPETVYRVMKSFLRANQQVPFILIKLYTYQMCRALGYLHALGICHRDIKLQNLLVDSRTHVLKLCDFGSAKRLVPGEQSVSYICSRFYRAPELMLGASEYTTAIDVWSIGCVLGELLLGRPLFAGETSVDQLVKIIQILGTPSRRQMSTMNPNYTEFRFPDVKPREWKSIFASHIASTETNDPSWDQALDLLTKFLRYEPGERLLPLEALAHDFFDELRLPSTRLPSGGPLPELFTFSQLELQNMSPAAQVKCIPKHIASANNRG
Description: as §1

[7] = read-out: IC50 Plasmodium knowlesi; calculated from dose-response curves
[8] = read-out: IC50 Trypanopsoma cruzi; calculated from dose-response curves; -(100) taken as no inhibition at 100
[9] = read-out: IC50 Leishmania donovani; calculated from dose-response curves
[10] = calculated from dose-response curves; read-out: IC50 Plasmodium knowlesi
[11] = calculated from dose-response curves; -(100) taken as no inhibition at 100; read-out: IC50 Trypanopsoma cruzi
[12] = calculated from dose-response curves; read-out: IC50 Leishmania donovani
[13] = calculated from dose-response curves, -(100) taken as no inhibition at 100, read-out: IC50 Cryptosporidium parvum
[14] = calculated from dose-response curves, -(100) taken as no inhibition at 100, read-out: IC50 Toxaplasma grondii
[15] = -(10) taken as no inhibition at 10, read-out: IC50 Mammalian GSK-3

| SMILES | IC50 (GSK-3 [1]; [7]) | IC50 (GSK-3 [2]; [8]) | IC50 (GSK-3 [3]; [9]) | anti-mammalian GSK-3 IC50 values [4] | IC50 (GSK-3 [5]) | IC50 (GSK-3 [6]) | IC50 (GSK-3 [1]; [10]) | IC50 (GSK-3 [2]; [11]) | IC50 (GSK-3 [3]; [12]) | IC50 (GSK-3 [5]; [13]) | IC50 (GSK-3 [6]; [14]) | IC50 [4, 15] | IC50 ([4]; read-out: mammalian GSK-3α/β IC50) |
| --- | --- | --- | --- | --- | --- | --- | --- | --- | --- | --- | --- | --- | --- |
| COc1ccccc1-c1c(C#N)c(N)nc2sc(C(=O)c3ccccc3)c(N)c12 [Compound 2, 3,6-diamino-2-benzoyl-4-(2-methoxyphenyl)thieno[2,3-b]pyridine-5-carbonitrile] | 95 µM | > 100 µM | 80 µM | do not demonstrate good | > 100 µM | > 100 µM | – | – | – | – | – | – | – |
| N#Cc1c(N)nc2sc(C(=O)c3cccc(Cl)c3)c(N)c2c1-c1ccccc1I [Compound 14, 3,6-diamino-2-(3-chlorobenzoyl)-4-(2-iodophenyl)thieno[2,3-b]pyridine-5-carbonitrile] | – | – | – | do not demonstrate good | – | – | 2.75 µM | > 100 µM | 70 µM | > 100 µM | > 100 µM | – | – |
| N#Cc1c(N)nc2sc(C(=O)c3cccc(Cl)c3)c(N)c2c1-c1ccccc1Br [Compound 20, 3,6-diamino-4-(2-bromophenyl)-2-(3-chlorobenzoyl)thieno[2,3-b]pyridine-5-carbonitrile] | – | – | – | do not demonstrate good | – | – | 1.45 µM | > 100 µM | 44 µM | > 100 µM | > 100 µM | – | – |
| N#Cc1c(N)nc2sc(C(=O)c3cccc(Cl)c3)c(N)c2c1-c1ccccc1Cl [Compound 22, 3,6-diamino-2-(3-chlorobenzoyl)-4-(2-chlorophenyl)thieno[2,3-b]pyridine-5-carbonitrile] | 2.45 µM | > 100 µM | 72 µM | do not demonstrate good | > 100 µM | > 100 µM | – | – | – | – | – | > 10 µM | > 10 µM |
| N#Cc1cccc(C(=O)c2sc3nc(N)c(C#N)c(-c4ccccc4Cl)c3c2N)c1 [Compound 26, 3,6-diamino-4-(2-chlorophenyl)-2-(3-cyanobenzoyl)thieno[2,3-b]pyridine-5-carbonitrile] | – | – | – | do not demonstrate good | – | – | 6.5 µM | > 100 µM | 100 µM | > 100 µM | > 100 µM | > 10 µM | – |

Reference: patent publication EP2308883A1, “New derivatives of thieno[2,3-b]pyridine and 5,6,7,8 tetrahydrothieno[2,3 b]quinoline in particular useful in the treatment of malaria” (priority 2009, dated 2011)
